Assays:
Cavia porcellus [1] = assay: Percent inhibition effect of ONO-5046 on the increase of skin capillary permeability induced by HNE in guinea pigs in vivo on administration of 3 mg/Kg dose iv in guinea pig; format: functional
Cavia porcellus [2] = assay: Percent inhibition effect of ONO-5046 on the increase of skin capillary permeability induced by HNE in guinea pigs in vivo on administration of 10 mg/Kg dose iv in guinea pig; format: functional

CC(C)(C)C(=O)Oc1ccc(S(=O)(=O)Nc2ccccc2C(=O)NCC(=O)O)cc1 was tested, and the inhibition in vivo at 3 mg/kg (Cavia porcellus [1]) was 31.7% and the inhibition in vivo at 10 mg/kg (Cavia porcellus [2]) was 51.8%.

Reference: ChEMBL document CHEMBL1134889, “Clarification of mechanism of human sputum elastase inhibition by a new inhibitor, ONO-5046, using electrospray ionization mass spectrometry” (Bioorg Med Chem Lett, 2002)
